Here are results for 1 substance from patent US12582784B2, “Dry powder inhalation system” (MannKind Corporation, priority 2008, dated 2026).

On the set-up of data set [1]: species or system human (subjects with type 1 diabetes mellitus). As to conditions: human, in vivo, sc. The procedure:
The study was conducted in subjects with type 1 diabetes mellitus. This study was conducted to determine if a formulation for pulmonary delivery comprising insulin and a diketopiperazine in the formulation, 1) could be delivered consistently using different dosage strengths and 2) if linearity of dosing could be achieved with proportional doses, given that interchangeability of dosage strengths can be important for patient safety. […] Therefore, an important goal in the development of the pulmonary delivery system with a formulation comprising insulin and FDKP (insulin-FDKP) was to achieve dose linearity across the therapeutic dose range.
In the study, comparisons of insulin exposure following inhalation of two 15 U cartridges of an insulin inhalation powder to one 30 U cartridge of insulin inhalation powder were made. In addition, insulin bioavailability from a 30 U cartridge of insulin-FDKP inhalation powder was calculated, compared to a 10-IU subcutaneous (sc) injection of insulin lispro (rapid acting analogue [RAA]).
A phase I, open-label, single-dose, repeat administration study in subjects with type 1 diabetes (T1DM) was conducted to assess the pharmacokinetic profile or PK of 30 U of insulin-FDKP dosed as a single 30 U cartridge and compared to two 15 U cartridges administered with the present inhalation system. […]

A short description of data set [2]: Baseline-corrected glucose infusion rate (GIR) evaluation under hyperinsulinemic-euglycemic clamp. Format: in vivo, human (subjects with type 1 diabetes mellitus). As to conditions: 10 IU sc RAA. The procedure:
A phase I, open-label, single-dose, repeat administration study in subjects with type 1 diabetes (T1DM) was conducted to assess the pharmacokinetic profile or PK of 30 U of insulin-FDKP dosed as a single 30 U cartridge and compared to two 15 U cartridges administered with the present inhalation system. A 10 U subcutaneous injection of the rapid acting insulin analogue (RAA, HUMALOG® (Eli Lilly and Company, Indianapolis, IN)) was also tested. Subjects (age: 19-61 yrs) were randomized to 1 of 6 sequences. Fasted subjects received insulin-FDKP or RAA 4 to 6 hrs after initiating a hyperinsulinemic-euglycemic clamp. Randomization determined the order of insulin-FDKP dosing (first 2 treatment (tx) visits), and the location of the RAA injection (abdomen, arm or leg; 3rd tx visit). After dosing blood samples were taken and analyzed for insulin, insulin lispro and fumaryl diketopiperazine (FDKP (insulin-FDKP tx only)). When studying insulin-FDKP, the basal insulin infusion was performed with HUMALOG®, and when studying HUMALOG®, regular human insulin was used. The analytical methodologies enabled the independent measurement of each insulin tested.
This study also evaluated the effects of the dosages administered and the glucose infusion rate (GIR) requirements of the patients in the study. FIG. 19 illustrates the results of the GIR evaluation. […]

Turning to insulin lispro [Humalog], the “Insulin PK parameters tmax” value in data set [1] amounted to 1 h. Moreover, in data set [2], the “time after administration at which GIR peaked” value is “approximately 150 minutes” and the “time at which GIR returned toward baseline” value was roughly 300 min.
